Reference: patent US12319913B2, “5-halouracil-modified microRNAs and their use in the treatment of cancer” (The Research Foundation for The State University of New York, priority 2018, dated 2025)
[5FU] = 5-fluorouracil base replacing uracil

Experiments:
[1] = tested on: SKBR3 breast cancer cells; assay: Cell proliferation, SKBR3; format: cell-based, human; settings: SKBR3, compared to negative controls
Experimental: (§1) For transfections, 1×10^5 cells were plated in six-well plates and transfected with 100 nM of control non-specific miRNA (Thermo Fischer), a modified microRNA, or exogenous native microRNA after 24 hours using Oligofectamine (Thermo Fischer) following the manufacturer's protocols. For reagent free transfection, cells were plated in 6 well plates at (1×10^5) cells per well. Twenty-four hours later 100 pmol miRNA (Control, miR-15a, Mimic-1) were diluted in Optimem (Thermo Fischer) and added to the plate. Media was changed after 24 hours. Media was supplemented with 10% fetal bovine serum (Thermo Fischer). Briefly, cells were cultured in growth media (DMEM/F12 supplemented with B27, 10 ng/mL bFGF, and 20 ng/mL EGF (Life Technologies) in ultra-low attachment flasks) for up to 6 days. The spheroid cells were maintained by collection through gentle centrifugation, dissociation to single cells and replating.
(§2) Cell proliferation assay: Twenty-four hours after transfection, cells were seeded in 96-well plates at a density of 2000 cells per well. The cell proliferation assay was performed on days 1 to 5 by incubating 10 μl WST-1 (Roche Applied Science, Mannheim, Germany) in the culture medium for 1 h and reading the absorbance at 450 and 630 nm. The cell proliferation rate was calculated by subtracting the […]. Experiments for the cell proliferation assay were performed at least three times. The O.D. was calculated by subtracting the absorbance at 630 nm from that at 450 nm. Proliferation experiments were performed three times.

[2] = tested on: Panc-1 pancreatic cancer cells; assay: Cell proliferation, Panc-1; format: cell-based, human; settings: PANC-1; 50 nM, 25 nM, 12.5 nM, 6.25 nM, and 3.125 nM
Experimental: as §1, with “For transfections, 1×10^5 cells were plated in six-well plates and transfected with 100 nM of control non-specific miRNA (Thermo Fischer), a modified microRNA, or exogenous native microRNA after 24 hours using Oligofectamine (Thermo Fischer) following the manufacturer's protocols.” left out
as §2

[3] = tested on: AGS stomach cancer cells; assay: Cell proliferation, AGS; format: cell-based, human; settings: compared to negative controls
Experimental: as §1, §2

[4] = tested on: acute lymphocytic leukemia cell line (REH); assay: Cell proliferation, REH; format: cell-based, human; settings: 50 nM, 25 nM, 12.5 nM, 6.25 nM, and 3.125 nM
[5] = tested on: AsPC-1 pancreatic cancer cells; assay: Cell proliferation, AsPC-1; format: cell-based, human; settings: APSC-1; 50 nM, 25 nM, 12.5 nM, 6.25 nM, and 3.125 nM
Experimental: as §1, with “For transfections, 1×10^5 cells were plated in six-well plates and transfected with 100 nM of control non-specific miRNA (Thermo Fischer), a modified microRNA, or exogenous native microRNA after 24 hours using Oligofectamine (Thermo Fischer) following the manufacturer's protocols.” left out
as §2

[6] = tested on: acute lymphocytic leukemia cell line (REH); assay: Cell proliferation, REH; format: cell-based, human; settings: compared to negative controls
Experimental: as §1, §2

[7] = tested on: Hs766T pancreatic cancer cells; assay: Cell proliferation, Hs766T; format: cell-based, human; settings: compared to negative controls
Experimental: as §1, §2

[8] = tested on: A549 lung cancer cells; assay: Cell proliferation, A549; format: cell-based, human; settings: A549, compared to negative controls
Experimental: as §1, §2

[9] = tested on: MDA-MB-231 triple negative breast cancer cells; assay: MTT cell proliferation, MDA-MB-231, with or without oligofectamine; format: cell-based, human; settings: for cell proliferation without delivery vehicle (no oligofectamine): MDA-MB-231, MTT assay
Experimental: as §1
Furthermore, to test whether or not the modified microRNAs of the present disclosure can be delivered directly to cells and taken up by the cancer cells without the use of transfer agents or vehicles (i.e., oligofectamine), MDA-MB-231 triple negative breast cancer cells were transfected with miR-NC (negative control), exogenous unmodified miR-200b or miR-489, 5-FU-miR-200b or modified miR-489 by using oligofectamine or without delivery vehicle. As shown in FIGS. 17A-17B and 20A, the effects of expression of the exemplary modified miRs tested on breast cancer cell proliferation were monitored by MTT assay for 6 days upon transfection or incubation.

[10] = tested on: HCT116 colon cancer cells; assay: WST-1 cell proliferation assay, HCT116; format: cell-based, human; settings: HCT116, in words, vs controls
Experimental: as §1, with “1×10^5 cells were plated in six-well plates and transfected with 100 nM of control non-specific miRNA (Thermo Fischer), a modified microRNA, or exogenous native microRNA after 24 hours using Oligofectamine” left out
as §2

[11] = tested on: HCT116 derived colon cancer stem cells; format: cell-based; settings: lethal dose of 5-FU at 100 μM
Experimental: as §1
miR-129 mimics eliminated chemotherapy resistant colon cancer stem cells. To determine the impact of certain exemplary modified microRNAs of the present disclosure (i.e., miR-129 mimics) on 5-FU resistant colon cancer stem cells, HCT116 derived colon cancer stem cells were treated with various concentrations of Mimic-1 or 5-FU.

In the case of “U^FAU^FU^FCAGGAAGGU^FGU^FU^FACU^FU^FAA (UAUUCAGGAAGGUGUUACUUAA; RNA, [5FU] at 1, 3, 4, 13, 15, 16, 19, 20, backbone not given here) [modified miR-506, miR-506 in which all (8) U bases are replaced by 5-fluorouracil]”, the “breast cancer cell proliferation” value [1] is reported as “inhibited”, the “cell proliferation, dose dependence” value [2] is reported as “inhibited in a dose dependent manner” and the “gastric cancer cell proliferation” value [3] is reported as “inhibited”. For the same compound, the “leukemia cancer cell proliferation, dose dependence” value [4] was “inhibited in a dose dependent manner”, the “cell proliferation, dose dependence” value [5] was “inhibited in a dose dependent manner” and the “leukemia cancer cell proliferation” value [6] was “inhibited”. The “pancreatic cancer cell proliferation” value [7] was “inhibited” and the “lung cancer cell proliferation” value [8] was “inhibited”.

For “UAAUACUGCCUGGUAAUGAUGA (chemistry not fully specified; listed as Homo sapiens) [native miR-200b, 21]”, the “cell proliferation without delivery vehicle (no oligofectamine)” value [9] was “had no effects on proliferation”, the “cell proliferation in the presence of oligofectamine” value ([9]; MDA-MB-231, MTT assay for 6 days, vs miR-NC) was “reduced the rate of cell proliferation” and the “cell proliferation without delivery vehicle (no oligofectamine)” value ([9]; listed as exogenous miR-200b) was “did not inhibit cell growth”.

With “CU^FGACCU^FAU^FGAAU^FU^FGACAGCC (CUGACCUAUGAAUUGACAGCC; RNA, [5FU] at 2, 7, 9, 13, 14, backbone not given here) [modified miR-192]” the “breast cancer cell proliferation” value [1] was “inhibited”, the “cell proliferation, dose dependence” value [2] was “inhibited in a dose dependent manner” and the “inhibition of colon cancer cell proliferation” value [10] was “increased ability to inhibit colorectal cancer cell proliferation”. For the same compound, the “gastric cancer cell proliferation” value [3] was “inhibited”, the “leukemia cancer cell proliferation, dose dependence” value [4] was “inhibited in a dose dependent manner” and the “cell proliferation, dose dependence” value [5] was “inhibited in a dose dependent manner”. For the same compound, the “leukemia cancer cell proliferation” value [6] was “inhibited”, the “pancreatic cancer cell proliferation” value [7] was “inhibited” and the “lung cancer cell proliferation” value [8] was “inhibited”.

With “U^FAACACU^FGU^FCU^FGGU^FAACGAU^FGU^F (UAACACUGUCUGGUAACGAUGU; U replaced by 5-fluorouracil, chemistry not fully specified) [modified miR-200a, miR-200a in which all (7) U bases are replaced by 5-fluorouracil]” the “breast cancer cell proliferation” value [1] was “inhibited”, the “cell proliferation, dose dependence” value [2] was “inhibited in a dose dependent manner” and the “gastric cancer cell proliferation” value [3] was “inhibited”. The “leukemia cancer cell proliferation, dose dependence” value [4] was “inhibited in a dose dependent manner”, the “cell proliferation, dose dependence” value [5] was “inhibited in a dose dependent manner” and the “leukemia cancer cell proliferation” value [6] was “inhibited”. The “pancreatic cancer cell proliferation” value [7] was “inhibited” and the “lung cancer cell proliferation” value [8] was “inhibited”.

For “CAGU^FGGUUUUACCCU^FAUGGU^FAG (CAGUGGUUUUACCCUAUGGUAG; RNA, [5FU] at 4, 15, 20, backbone not given here) [modified miR-140 [SEQ ID NO. 9], miR-140 in which certain (3) U bases are replaced by 5-fluorouracil]”, the “inhibition of colon cancer cell proliferation” value [10] was “increased ability to inhibit colorectal cancer cell proliferation”.

With “AU^FCCU^FU^FGCUAU^FCU^FGGGU^FGCU^FA (AUCCUUGCUAUCUGGGUGCUA; RNA, [5FU] at 2, 5, 6, 11, 13, 17, 20, backbone not given here) [modified miR-502]” the “breast cancer cell proliferation” value [1] was “inhibited”, the “cell proliferation, dose dependence” value [2] was “inhibited in a dose dependent manner” and the “gastric cancer cell proliferation” value [3] was “inhibited”. The “leukemia cancer cell proliferation, dose dependence” value [4] was “inhibited in a dose dependent manner”, the “cell proliferation, dose dependence” value [5] was “inhibited in a dose dependent manner” and the “leukemia cancer cell proliferation” value [6] was “inhibited”. For the same compound, the “pancreatic cancer cell proliferation” value [7] was “inhibited” and the “lung cancer cell proliferation” value [8] was “inhibited”.

For “U^FGGCAGU^FGU^FCU^FU^FAGCU^FGGU^FU^FGU^F (UGGCAGUGUCUUAGCUGGUUGU; all U replaced by 5-fluorouracil, chemistry not fully specified) [modified miR-34, miR-34 in which all (9) U bases are replaced by 5-fluorouracil]”, the “breast cancer cell proliferation” value [1] was “inhibited”, the “cell proliferation, dose dependence” value [2] was “inhibited in a dose dependent manner” and the “gastric cancer cell proliferation” value [3] was “inhibited”. For the same compound, the “leukemia cancer cell proliferation, dose dependence” value [4] was “inhibited in a dose dependent manner”, the “cell proliferation, dose dependence” value [5] was “inhibited in a dose dependent manner” and the “leukemia cancer cell proliferation” value [6] was “inhibited”. For the same compound, the “pancreatic cancer cell proliferation” value [7] was “inhibited” and the “lung cancer cell proliferation” value [8] was “inhibited”.

For “CAGU^FGGU^FU^FU^FU^FACCCU^FAU^FGGU^F AG (CAGUGGUUUUACCCUAUGGUAG; RNA, [5FU] at 4, 7, 8, 9, 10, 15, 17, 20, backbone not given here) [modified miR-140 [SEQ ID NO. 16]]”, the “breast cancer cell proliferation” value [1] was “inhibited”, the “cell proliferation, dose dependence” value [2] was “inhibited in a dose dependent manner” and the “gastric cancer cell proliferation” value [3] was “inhibited”. For the same compound, the “leukemia cancer cell proliferation, dose dependence” value [4] was “inhibited in a dose dependent manner”, the “cell proliferation, dose dependence” value [5] was “inhibited in a dose dependent manner” and the “leukemia cancer cell proliferation” value [6] was “inhibited”. The “pancreatic cancer cell proliferation” value [7] was “inhibited” and the “lung cancer cell proliferation” value [8] was “inhibited”.

In the case of “U^FAAU^FACU^FGCCGGGU^FAAU^FGAU^FGGA [modified miR-200c]”, the “breast cancer cell proliferation” value [1] is reported as “inhibited”, the “cell proliferation, dose dependence” value [2] is reported as “inhibited in a dose dependent manner” and the “gastric cancer cell proliferation” value [3] is reported as “inhibited”. For the same compound, the “leukemia cancer cell proliferation, dose dependence” value [4] was “inhibited in a dose dependent manner”, the “cell proliferation, dose dependence” value [5] was “inhibited in a dose dependent manner” and the “leukemia cancer cell proliferation” value [6] was “inhibited”. The “pancreatic cancer cell proliferation” value [7] was “inhibited” and the “lung cancer cell proliferation” value [8] was “inhibited”.

In the case of “U^FGU^FAACAGCAACU^FCCAU^FGU^FGGA (UGUAACAGCAACUCCAUGUGGA; RNA, [5FU] at 1, 3, 13, 17, 19, backbone not given here) [modified miR-194]”, the “breast cancer cell proliferation” value [1] is reported as “inhibited”, the “cell proliferation, dose dependence” value [2] is reported as “inhibited in a dose dependent manner” and the “gastric cancer cell proliferation” value [3] is reported as “inhibited”. For the same compound, the “leukemia cancer cell proliferation, dose dependence” value [4] was “inhibited in a dose dependent manner”, the “cell proliferation, dose dependence” value [5] was “inhibited in a dose dependent manner” and the “leukemia cancer cell proliferation” value [6] was “inhibited”. For the same compound, the “pancreatic cancer cell proliferation” value [7] was “inhibited” and the “lung cancer cell proliferation” value [8] was “inhibited”.

For `O=c1[nH]cc(F)c(=O)[nH]1` [5-FU, 5-fluoro-1H-pyrimidine-2,4-dione, reference compound], the “effect on tumor stem cell viability” value [11] was “minimal effect”.
